Results on one compound are retold here after PMC10281726 (Journal of Food and Drug Analysis, 2023).

One may read the IC50 as the point on the concentration scale where inhibition reaches its midpoint. Lower therefore signals inhibition by little substance. As usually defined, the inhibition is the relative decrease from the control value, in per cent.

What all share (type): biochemical
The target of assay [1] is dual-specific tyrosine phosphorylation-regulated kinase 1A (DYRK1A) (Homo sapiens, UniProt Q13627). In words: Z'-LYTE FRET-peptide kinase assay, dose response.
The target in the next assay is T1, STK3 (Homo sapiens, UniProt Q13188).
T1 sequence (Q13188 1-491): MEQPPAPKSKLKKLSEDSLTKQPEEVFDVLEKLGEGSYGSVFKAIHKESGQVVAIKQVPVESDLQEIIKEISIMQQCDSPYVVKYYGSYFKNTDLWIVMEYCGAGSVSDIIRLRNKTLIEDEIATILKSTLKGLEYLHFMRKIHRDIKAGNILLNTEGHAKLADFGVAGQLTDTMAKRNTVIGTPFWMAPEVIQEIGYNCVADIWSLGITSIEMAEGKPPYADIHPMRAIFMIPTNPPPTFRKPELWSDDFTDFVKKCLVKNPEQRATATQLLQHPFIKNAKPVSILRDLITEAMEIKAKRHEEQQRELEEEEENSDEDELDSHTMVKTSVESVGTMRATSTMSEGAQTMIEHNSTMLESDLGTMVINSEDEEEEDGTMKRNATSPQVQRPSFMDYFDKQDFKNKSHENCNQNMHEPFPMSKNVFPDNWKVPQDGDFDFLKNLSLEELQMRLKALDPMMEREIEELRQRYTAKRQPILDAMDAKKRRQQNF
Kind of assay: kinase panel. The conditions noted are these: read-out: % inhibition at 3 μM.

The target in another assay is MKNK1 (Homo sapiens, UniProt Q9BUB5). Kind of assay: kinase panel. The conditions noted are these: read-out: % inhibition at 3 μM.
A further assay addresses MINK1 (Homo sapiens, UniProt Q8N4C8). Kind of assay: kinase panel. The conditions noted are these: read-out: % inhibition at 3 μM.
In a further assay the target is VRK2 (Homo sapiens, UniProt Q86Y07). Kind of assay: kinase panel. The note with it: read-out: % inhibition at 3 μM.

Some results are limits rather than exact numbers.

VRK2, sequence (Q86Y07 whole entry): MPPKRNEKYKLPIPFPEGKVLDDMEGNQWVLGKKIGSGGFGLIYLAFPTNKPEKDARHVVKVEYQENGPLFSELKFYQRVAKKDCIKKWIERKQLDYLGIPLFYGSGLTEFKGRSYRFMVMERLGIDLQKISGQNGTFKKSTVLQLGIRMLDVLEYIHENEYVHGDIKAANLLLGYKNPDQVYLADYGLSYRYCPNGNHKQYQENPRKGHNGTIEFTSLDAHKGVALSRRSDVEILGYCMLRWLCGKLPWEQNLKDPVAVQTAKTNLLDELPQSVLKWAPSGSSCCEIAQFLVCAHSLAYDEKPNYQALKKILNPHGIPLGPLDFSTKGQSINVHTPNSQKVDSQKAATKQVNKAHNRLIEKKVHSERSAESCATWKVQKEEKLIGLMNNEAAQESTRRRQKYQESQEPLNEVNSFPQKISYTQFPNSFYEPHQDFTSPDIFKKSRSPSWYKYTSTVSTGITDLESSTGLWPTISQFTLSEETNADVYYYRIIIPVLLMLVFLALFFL
MINK1, sequence (Q8N4C8 whole entry): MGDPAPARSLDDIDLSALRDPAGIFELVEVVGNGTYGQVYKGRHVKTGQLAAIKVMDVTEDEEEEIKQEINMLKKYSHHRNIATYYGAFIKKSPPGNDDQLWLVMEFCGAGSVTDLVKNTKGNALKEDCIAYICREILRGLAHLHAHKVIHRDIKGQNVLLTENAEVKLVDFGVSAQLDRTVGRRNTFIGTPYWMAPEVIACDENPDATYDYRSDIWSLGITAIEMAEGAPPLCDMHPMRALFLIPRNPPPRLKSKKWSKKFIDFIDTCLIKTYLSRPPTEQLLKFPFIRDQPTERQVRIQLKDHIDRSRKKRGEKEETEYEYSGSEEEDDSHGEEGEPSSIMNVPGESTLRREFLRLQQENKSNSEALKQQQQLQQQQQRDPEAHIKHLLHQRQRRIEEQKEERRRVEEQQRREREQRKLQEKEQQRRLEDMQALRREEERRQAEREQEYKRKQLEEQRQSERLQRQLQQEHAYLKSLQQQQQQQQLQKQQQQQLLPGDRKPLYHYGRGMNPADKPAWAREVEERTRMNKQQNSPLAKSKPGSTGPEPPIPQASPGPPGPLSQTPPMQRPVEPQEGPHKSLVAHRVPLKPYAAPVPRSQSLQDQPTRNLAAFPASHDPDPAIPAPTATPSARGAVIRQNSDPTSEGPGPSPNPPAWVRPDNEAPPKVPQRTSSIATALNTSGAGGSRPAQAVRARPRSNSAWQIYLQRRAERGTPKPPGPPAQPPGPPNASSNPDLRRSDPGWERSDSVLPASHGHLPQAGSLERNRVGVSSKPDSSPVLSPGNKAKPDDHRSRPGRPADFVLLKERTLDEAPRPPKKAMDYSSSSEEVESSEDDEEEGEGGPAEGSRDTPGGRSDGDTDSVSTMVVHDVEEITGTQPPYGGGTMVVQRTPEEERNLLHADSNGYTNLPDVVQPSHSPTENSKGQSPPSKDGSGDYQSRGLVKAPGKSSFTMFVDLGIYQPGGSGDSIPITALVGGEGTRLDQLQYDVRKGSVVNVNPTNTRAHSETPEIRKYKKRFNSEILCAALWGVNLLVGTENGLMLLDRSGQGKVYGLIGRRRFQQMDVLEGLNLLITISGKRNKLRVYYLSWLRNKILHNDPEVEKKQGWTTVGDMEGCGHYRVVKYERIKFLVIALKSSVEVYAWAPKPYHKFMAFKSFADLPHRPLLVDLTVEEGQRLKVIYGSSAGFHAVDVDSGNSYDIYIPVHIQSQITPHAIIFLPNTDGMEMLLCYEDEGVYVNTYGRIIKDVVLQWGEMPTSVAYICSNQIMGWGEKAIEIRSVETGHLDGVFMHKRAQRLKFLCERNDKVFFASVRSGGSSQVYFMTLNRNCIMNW
MKNK1, sequence (Q9BUB5 whole entry): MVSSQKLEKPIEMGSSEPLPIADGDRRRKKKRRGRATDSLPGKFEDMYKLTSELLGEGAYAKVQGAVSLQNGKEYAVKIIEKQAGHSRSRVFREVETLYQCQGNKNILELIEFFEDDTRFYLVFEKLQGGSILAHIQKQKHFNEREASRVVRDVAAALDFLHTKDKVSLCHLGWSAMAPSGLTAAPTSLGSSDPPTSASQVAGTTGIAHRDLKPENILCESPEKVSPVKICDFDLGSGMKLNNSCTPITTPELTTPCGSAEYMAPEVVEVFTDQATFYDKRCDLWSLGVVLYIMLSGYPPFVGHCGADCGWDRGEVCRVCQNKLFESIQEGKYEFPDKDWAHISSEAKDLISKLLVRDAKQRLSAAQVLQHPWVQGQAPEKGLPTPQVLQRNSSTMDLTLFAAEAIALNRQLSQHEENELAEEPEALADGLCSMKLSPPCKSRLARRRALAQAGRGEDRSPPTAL

In the case of `O=c1oc2cc(O)ccc2c2ccc(O)cc12` [UA, Urolithin A], in assay [1], half-maximal inhibition (IC50) was put at 909 nM. Besides, the inhibition at 3 µM at STK3, on MKNK1, at MINK1 and at VRK2 was over 50% each time.
